EP4722207A1, “OXOISOINDOLINYL-SUBSTITUTED TETRAHYDROPYRIMIDINEDIONE DERIVATIVE AND USE THEREOF” (Gluetacs Therapeutics (Shanghai) Co., Ltd., priority 2023, dated 2024)

Key:
Type in all cases: cell-based
Conditions in all cases: 24 hours of compound treatment, 50 nM and 500 nM
WEE1 = molecular target: T1, WEE1 (Homo sapiens, UniProt P30291+Q96SW2); assay: Western-blot assay, substrate protein degradation in hPBMCs: WEE1
T1 construct: effects of the compounds of the present disclosure on the expression of target proteins in cells; endogenous in cells; host or cells: human PBMCs (hPBMCs)

CK1α = molecular target: T2, CK1α (Homo sapiens, UniProt P48729+Q96SW2); assay: Western-blot assay, substrate protein degradation in hPBMCs: CK1α
T2 construct: effects of the compounds of the present disclosure on the expression of target proteins in cells; endogenous in cells; host or cells: human PBMCs (hPBMCs)

IKZF2 = molecular target: T3, IKZF2 (Homo sapiens, UniProt Q96SW2+Q9UKS7); assay: Western-blot assay, substrate protein degradation in hPBMCs: IKZF2
T3 construct: effects of the compounds of the present disclosure on the expression of target proteins in cells; endogenous in cells; host or cells: human PBMCs (hPBMCs)

IKZF1 = molecular target: T4, IKZF1 (Homo sapiens, UniProt Q13422+Q96SW2); assay: Western-blot assay, substrate protein degradation in hPBMCs: IKZF1
T4 construct: effects of the compounds of the present disclosure on the expression of target proteins in cells; endogenous in cells; host or cells: human PBMCs (hPBMCs)

IKZF3 = molecular target: T5, IKZF3 (Homo sapiens, UniProt Q96SW2+Q9UKT9); assay: Western-blot assay, substrate protein degradation in hPBMCs: IKZF3
T5 construct: effects of the compounds of the present disclosure on the expression of target proteins in cells; endogenous in cells; host or cells: human PBMCs (hPBMCs)

GSPT1 = molecular target: T6, GSPT1 (Homo sapiens, UniProt P15170+Q96SW2); assay: Western-blot assay, substrate protein degradation in hPBMCs: GSPT1
T6 construct: effects of the compounds of the present disclosure on the expression of target proteins in cells; endogenous in cells; host or cells: human PBMCs (hPBMCs)
T6 sequence (P15170 whole entry): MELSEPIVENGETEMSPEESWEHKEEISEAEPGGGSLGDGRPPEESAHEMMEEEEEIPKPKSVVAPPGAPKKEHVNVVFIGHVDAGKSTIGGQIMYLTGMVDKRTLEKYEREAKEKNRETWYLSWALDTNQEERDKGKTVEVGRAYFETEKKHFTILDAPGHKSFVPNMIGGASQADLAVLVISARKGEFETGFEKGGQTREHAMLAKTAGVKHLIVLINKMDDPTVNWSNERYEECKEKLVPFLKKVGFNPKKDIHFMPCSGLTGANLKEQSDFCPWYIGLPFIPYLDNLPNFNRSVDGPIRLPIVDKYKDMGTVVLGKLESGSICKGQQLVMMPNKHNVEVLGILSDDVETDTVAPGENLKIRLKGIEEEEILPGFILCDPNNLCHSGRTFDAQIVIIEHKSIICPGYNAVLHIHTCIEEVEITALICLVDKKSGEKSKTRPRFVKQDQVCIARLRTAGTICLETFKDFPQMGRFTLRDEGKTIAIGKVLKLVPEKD
T6 sequence (Q96SW2 whole entry): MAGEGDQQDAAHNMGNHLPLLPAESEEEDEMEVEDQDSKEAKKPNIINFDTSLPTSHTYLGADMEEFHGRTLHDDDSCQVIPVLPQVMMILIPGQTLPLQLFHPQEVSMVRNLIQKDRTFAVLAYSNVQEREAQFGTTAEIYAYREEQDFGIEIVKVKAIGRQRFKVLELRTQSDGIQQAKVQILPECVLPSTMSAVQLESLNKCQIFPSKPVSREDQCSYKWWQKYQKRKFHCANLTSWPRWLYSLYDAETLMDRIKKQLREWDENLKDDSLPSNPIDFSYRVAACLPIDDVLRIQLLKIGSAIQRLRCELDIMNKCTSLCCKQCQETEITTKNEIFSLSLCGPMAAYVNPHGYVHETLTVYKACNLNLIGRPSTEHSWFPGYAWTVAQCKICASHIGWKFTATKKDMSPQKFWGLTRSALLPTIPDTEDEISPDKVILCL
T6 sequence (Q16531 whole entry partner): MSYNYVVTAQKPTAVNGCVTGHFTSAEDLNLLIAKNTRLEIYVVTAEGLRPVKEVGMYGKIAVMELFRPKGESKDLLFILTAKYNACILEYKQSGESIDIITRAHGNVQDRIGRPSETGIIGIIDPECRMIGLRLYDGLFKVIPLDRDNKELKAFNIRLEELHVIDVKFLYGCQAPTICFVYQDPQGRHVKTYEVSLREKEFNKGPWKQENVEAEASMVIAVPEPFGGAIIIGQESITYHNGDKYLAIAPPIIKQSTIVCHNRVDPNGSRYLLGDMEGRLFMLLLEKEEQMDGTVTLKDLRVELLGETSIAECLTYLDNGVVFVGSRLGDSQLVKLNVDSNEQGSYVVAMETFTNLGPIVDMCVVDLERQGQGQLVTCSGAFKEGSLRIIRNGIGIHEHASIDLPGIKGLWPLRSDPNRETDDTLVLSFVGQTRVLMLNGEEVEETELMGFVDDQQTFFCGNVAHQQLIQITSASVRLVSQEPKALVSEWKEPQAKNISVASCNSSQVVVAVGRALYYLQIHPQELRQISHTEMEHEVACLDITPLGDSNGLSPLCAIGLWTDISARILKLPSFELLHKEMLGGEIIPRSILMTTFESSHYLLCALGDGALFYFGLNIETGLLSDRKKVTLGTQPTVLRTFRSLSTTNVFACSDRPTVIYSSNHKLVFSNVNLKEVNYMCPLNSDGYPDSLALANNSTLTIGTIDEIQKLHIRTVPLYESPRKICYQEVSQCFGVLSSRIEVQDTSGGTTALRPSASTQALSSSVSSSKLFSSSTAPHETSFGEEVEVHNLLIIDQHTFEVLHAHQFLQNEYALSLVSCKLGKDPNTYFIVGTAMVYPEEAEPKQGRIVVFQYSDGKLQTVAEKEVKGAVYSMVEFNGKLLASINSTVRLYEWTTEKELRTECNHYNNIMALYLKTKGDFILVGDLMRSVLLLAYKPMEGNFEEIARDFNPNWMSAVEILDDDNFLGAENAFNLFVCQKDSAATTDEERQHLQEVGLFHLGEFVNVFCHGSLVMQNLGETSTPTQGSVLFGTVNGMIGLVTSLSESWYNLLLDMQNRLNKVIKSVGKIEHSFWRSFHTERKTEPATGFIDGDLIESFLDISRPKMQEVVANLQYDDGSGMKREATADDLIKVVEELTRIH

T1 sequence (P30291 whole entry): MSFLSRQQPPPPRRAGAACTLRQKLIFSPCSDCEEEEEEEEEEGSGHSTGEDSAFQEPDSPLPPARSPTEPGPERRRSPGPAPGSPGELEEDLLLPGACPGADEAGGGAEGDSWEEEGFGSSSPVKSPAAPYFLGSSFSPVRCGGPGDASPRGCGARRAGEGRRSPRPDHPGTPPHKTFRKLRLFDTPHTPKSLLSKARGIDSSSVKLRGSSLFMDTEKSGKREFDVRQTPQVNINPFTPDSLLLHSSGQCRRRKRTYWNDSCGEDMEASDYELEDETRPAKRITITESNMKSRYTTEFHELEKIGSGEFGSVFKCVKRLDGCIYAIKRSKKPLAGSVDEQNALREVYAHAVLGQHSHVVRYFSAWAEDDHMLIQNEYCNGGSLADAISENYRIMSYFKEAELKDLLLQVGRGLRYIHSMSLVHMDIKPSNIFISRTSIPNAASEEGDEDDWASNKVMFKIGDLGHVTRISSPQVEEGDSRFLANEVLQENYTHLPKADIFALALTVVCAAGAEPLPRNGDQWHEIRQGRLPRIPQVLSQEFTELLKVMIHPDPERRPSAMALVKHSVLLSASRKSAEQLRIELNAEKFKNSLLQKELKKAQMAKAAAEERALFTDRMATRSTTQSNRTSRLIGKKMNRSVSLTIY
T1 sequence (Q96SW2 whole entry): as the sequence (Q96SW2 whole entry) above
T1 sequence (Q16531 whole entry partner): as the sequence (Q16531 whole entry partner) above
T2 sequence (P48729 whole entry): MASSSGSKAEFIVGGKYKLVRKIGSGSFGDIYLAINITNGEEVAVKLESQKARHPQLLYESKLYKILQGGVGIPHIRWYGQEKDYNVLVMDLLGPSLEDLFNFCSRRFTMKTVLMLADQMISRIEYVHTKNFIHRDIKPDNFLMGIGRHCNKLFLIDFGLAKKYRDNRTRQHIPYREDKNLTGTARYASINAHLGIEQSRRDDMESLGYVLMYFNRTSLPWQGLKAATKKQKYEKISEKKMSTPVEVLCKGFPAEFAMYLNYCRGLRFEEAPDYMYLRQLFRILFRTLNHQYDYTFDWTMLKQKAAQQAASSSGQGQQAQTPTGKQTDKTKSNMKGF
T2 sequence (Q96SW2 whole entry): as the sequence (Q96SW2 whole entry) above
T2 sequence (Q16531 whole entry partner): as the sequence (Q16531 whole entry partner) above
T3 sequence (Q9UKS7 whole entry): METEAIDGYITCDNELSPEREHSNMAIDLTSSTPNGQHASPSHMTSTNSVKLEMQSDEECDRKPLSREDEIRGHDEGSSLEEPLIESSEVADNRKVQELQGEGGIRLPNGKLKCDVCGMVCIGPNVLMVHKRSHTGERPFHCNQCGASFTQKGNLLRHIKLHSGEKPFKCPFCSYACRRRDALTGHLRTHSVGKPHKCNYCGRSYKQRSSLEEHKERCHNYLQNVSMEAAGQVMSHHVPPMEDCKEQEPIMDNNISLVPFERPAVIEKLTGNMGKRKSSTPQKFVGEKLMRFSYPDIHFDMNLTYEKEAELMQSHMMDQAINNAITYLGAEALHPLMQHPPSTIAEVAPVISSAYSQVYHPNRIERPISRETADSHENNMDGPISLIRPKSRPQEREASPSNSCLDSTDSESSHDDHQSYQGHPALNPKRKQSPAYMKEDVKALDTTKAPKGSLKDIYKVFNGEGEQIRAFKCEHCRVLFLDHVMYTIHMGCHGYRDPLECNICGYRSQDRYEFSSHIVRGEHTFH
T3 sequence (Q96SW2 whole entry): as the sequence (Q96SW2 whole entry) above
T3 sequence (Q16531 whole entry partner): as the sequence (Q16531 whole entry partner) above
T5 sequence (Q9UKT9 whole entry): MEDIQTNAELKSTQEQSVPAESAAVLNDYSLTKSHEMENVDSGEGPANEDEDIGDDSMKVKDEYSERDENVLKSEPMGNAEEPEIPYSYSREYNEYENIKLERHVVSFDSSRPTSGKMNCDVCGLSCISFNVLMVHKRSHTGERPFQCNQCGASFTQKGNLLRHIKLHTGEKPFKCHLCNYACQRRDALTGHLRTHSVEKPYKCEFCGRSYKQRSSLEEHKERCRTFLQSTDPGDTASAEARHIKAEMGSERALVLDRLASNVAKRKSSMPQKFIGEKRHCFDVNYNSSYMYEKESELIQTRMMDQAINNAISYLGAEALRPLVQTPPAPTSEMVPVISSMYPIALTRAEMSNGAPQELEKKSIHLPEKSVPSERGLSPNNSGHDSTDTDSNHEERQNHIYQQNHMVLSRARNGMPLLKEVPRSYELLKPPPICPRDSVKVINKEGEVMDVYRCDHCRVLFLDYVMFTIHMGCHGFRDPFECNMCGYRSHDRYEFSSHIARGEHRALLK
T5 sequence (Q96SW2 whole entry): as the sequence (Q96SW2 whole entry) above
T5 sequence (Q16531 whole entry partner): as the sequence (Q16531 whole entry partner) above

Row | SMILES | substrate protein remaining % WEE1 (WEE1) | substrate protein remaining % CK1α (CK1α) | substrate protein remaining % IKZF2 (IKZF2) | substrate protein remaining % IKZF1 (IKZF1) | substrate protein remaining % IKZF3 (IKZF3) | substrate protein remaining % GSPT1 (GSPT1)
1 | O=C1CCN(N2C(=O)c3ccc(CN4CCN(c5c[nH]c6ncccc56)CC4)cc3C2=O)C(=O)N1 [GT-07528, 5-((4-(1H-pyrrolo[2,3-b]pyridin-3-yl)piperazin-1-yl)methyl)-2-(2,4-dioxotetrahydropyrimidin-1(2H)-yl)isoindoline-1,3-dione] | B (80%< substrate protein remaining %≤ 100%) | A (0% ≤ substrate protein remaining % ≤ 80%) | B (80%< substrate protein remaining %≤ 100%) | B (80%< substrate protein remaining %≤ 100%) | B (80%< substrate protein remaining %≤ 100%) | A (0% ≤ substrate protein remaining % ≤ 80%)
2 | O=C1CCN(N2C(=O)c3ccc(CN4CCC(n5cnc6cc(F)ccc65)CC4)cc3C2=O)C(=O)N1 [GT-07529, 2-(2,4-dioxotetrahydropyrimidin-1(2H)-yl)-5-((4-(5-fluoro-1H-benzo[d]imidazol-1-yl)piperidin-1-yl)methyl)isoindoline-1,3-dione] | B (80%< substrate protein remaining %≤ 100%) | A (0% ≤ substrate protein remaining % ≤ 80%) | B (80%< substrate protein remaining %≤ 100%) | B (80%< substrate protein remaining %≤ 100%) | B (80%< substrate protein remaining %≤ 100%) | A (0% ≤ substrate protein remaining % ≤ 80%)
3 | O=C1CCN(N2C(=O)c3ccc(CN4CCC(c5n[nH]c6cc(F)ccc56)CC4)cc3C2=O)C(=O)N1 [GT-07530, 2-(2,4-dioxotetrahydropyrimidin-1(2H)-yl)-5-((4-(6-fluoro-1H-indazol-3-yl)piperidin-1-yl)methyl)isoindoline-1,3-dione] | A (0% ≤ substrate protein remaining % ≤ 80%) | A (0% ≤ substrate protein remaining % ≤ 80%) | B (80%< substrate protein remaining %≤ 100%) | B (80%< substrate protein remaining %≤ 100%) | B (80%< substrate protein remaining %≤ 100%) | A (0% ≤ substrate protein remaining % ≤ 80%)
4 | O=C1CCN(N2Cc3cc(CN4CCN(c5n[nH]c6cc(F)ccc56)CC4)ccc3C2=O)C(=O)N1 [GT-07545, 1-(5-((4-(6-fluoro-1H-indazol-3-yl)piperazin-1-yl)methyl)-1-oxoisoindolin-2-yl)dihydropyrimidine-2,4(1H,3H)-dione] | A (0% ≤ substrate protein remaining % ≤ 80%) | A (0% ≤ substrate protein remaining % ≤ 80%) | B (80%< substrate protein remaining %≤ 100%) | A (0% ≤ substrate protein remaining % ≤ 80%) | B (80%< substrate protein remaining %≤ 100%) | A (0% ≤ substrate protein remaining % ≤ 80%)
5 | O=C1CCN(N2Cc3cc(CN4CCC(c5c[nH]c6ncccc56)CC4)ccc3C2=O)C(=O)N1 [GT-07576, 1-(5-((4-(1H-pyrrolo[2,3-b]pyridin-3-yl)piperidin-1-yl)methyl)-1-oxoisoindolin-2-yl)dihydropyrimidine-2,4(1H,3H)-dione] | A (0% ≤ substrate protein remaining % ≤ 80%) | A (0% ≤ substrate protein remaining % ≤ 80%) | A (0% ≤ substrate protein remaining % ≤ 80%) | A (0% ≤ substrate protein remaining % ≤ 80%) | B (80%< substrate protein remaining %≤ 100%) | A (0% ≤ substrate protein remaining % ≤ 80%)
6 | O=C1CCN(N2Cc3cc(CN4CCC(n5c(=O)[nH]c6cc(F)ccc65)CC4)ccc3C2=O)C(=O)N1 [GT-07579, 1-(5-((4-(5-fluoro-2-oxo-2,3-dihydro-1H-benzo[d]imidazol-1-yl)piperidin-1-yl)methyl)-1-oxoisoindolin-2-yl)dihydropyrimidine-2,4(1H,3H)-dione] | A (0% ≤ substrate protein remaining % ≤ 80%) | B (80%< substrate protein remaining %≤ 100%) | A (0% ≤ substrate protein remaining % ≤ 80%) | A (0% ≤ substrate protein remaining % ≤ 80%) | B (80%< substrate protein remaining %≤ 100%) | A (0% ≤ substrate protein remaining % ≤ 80%)
7 | O=C1CCN(N2C(=O)c3ccc(CN4CC=C(c5c[nH]c6cc(F)ccc56)CC4)cc3C2=O)C(=O)N1 [GT-07580, 2-(2,4-dioxotetrahydropyrimidin-1(2H)-yl)-5-((4-(6-fluoro-1H-indol-3-yl)-3,6-dihydropyridin-1(2H)-yl)methyl)isoindoline-1,3-dione] | A (0% ≤ substrate protein remaining % ≤ 80%) | B (80%< substrate protein remaining %≤ 100%) | A (0% ≤ substrate protein remaining % ≤ 80%) | A (0% ≤ substrate protein remaining % ≤ 80%) | A (0% ≤ substrate protein remaining % ≤ 80%) | A (0% ≤ substrate protein remaining % ≤ 80%)
8 | Cn1cc(C2CCN(Cc3ccc4c(c3)C(=O)N(N3CCC(=O)NC3=O)C4=O)CC2)c2ccc(F)cc21 [GT-07581, 2-(2,4-dioxotetrahydropyrimidin-1(2H)-yl)-5-((4-(6-fluoro-1-methyl-1H-indol-3-yl)piperidin-1-yl)methyl)isoindoline-1,3-dione] | A (0% ≤ substrate protein remaining % ≤ 80%) | B (80%< substrate protein remaining %≤ 100%) | A (0% ≤ substrate protein remaining % ≤ 80%) | A (0% ≤ substrate protein remaining % ≤ 80%) | B (80%< substrate protein remaining %≤ 100%) | A (0% ≤ substrate protein remaining % ≤ 80%)
9 | O=C1CCN(N2C(=O)c3ccc(CN4CCC(c5c[nH]c6ncccc56)CC4)cc3C2=O)C(=O)N1 [GT-07582, 5-((4-(1H-pyrrolo[2,3-b]pyridin-3-yl)piperidin-1-yl)methyl)-2-(2,4-dioxotetrahydropyrimidin-1(2H)-yl)isoindoline-1,3-dione] | A (0% ≤ substrate protein remaining % ≤ 80%) | B (80%< substrate protein remaining %≤ 100%) | A (0% ≤ substrate protein remaining % ≤ 80%) | A (0% ≤ substrate protein remaining % ≤ 80%) | B (80%< substrate protein remaining %≤ 100%) | A (0% ≤ substrate protein remaining % ≤ 80%)
10 | O=C1CCN(N2C(=O)c3ccc(CN4CCC(n5c(=O)[nH]c6cc(F)ccc65)CC4)cc3C2=O)C(=O)N1 [GT-07583, 2-(2,4-dioxotetrahydropyrimidin-1(2H)-yl)-5-((4-(5-fluoro-2-oxo-2,3-dihydro-1H-benzo[d]imidazol-1-yl)piperidin-1-yl)methyl)isoindoline-1,3-dione] | A (0% ≤ substrate protein remaining % ≤ 80%) | B (80%< substrate protein remaining %≤ 100%) | B (80%< substrate protein remaining %≤ 100%) | B (80%< substrate protein remaining %≤ 100%) | B (80%< substrate protein remaining %≤ 100%) | A (0% ≤ substrate protein remaining % ≤ 80%)
11 | O=C1CCN(N2Cc3cc(CN4CCC(N5CCCc6cc(F)ccc65)CC4)ccc3C2=O)C(=O)N1 [GT-07584, 1-(5-((4-(6-fluoro-3,4-dihydroquinolin-1(2H)-yl)piperidin-1-yl)methyl)-1-oxoisoindolin-2-yl)dihydropyrimidine-2,4(1H,3H)-dione] | A (0% ≤ substrate protein remaining % ≤ 80%) | B (80%< substrate protein remaining %≤ 100%) | B (80%< substrate protein remaining %≤ 100%) | A (0% ≤ substrate protein remaining % ≤ 80%) | B (80%< substrate protein remaining %≤ 100%) | A (0% ≤ substrate protein remaining % ≤ 80%)
12 | O=C1CCN(N2Cc3cc(CN4CCC(N5CCOc6cc(F)ccc65)CC4)ccc3C2=O)C(=O)N1 [GT-07585, 1-(5-((4-(7-fluoro-2,3-dihydro-4H-benzo[b][1,4]oxazin-4-yl)piperidin-1-yl)methyl)-1-oxoisoindolin-2-yl)dihydropyrimidine-2,4(1H,3H)-dione] | A (0% ≤ substrate protein remaining % ≤ 80%) | B (80%< substrate protein remaining %≤ 100%) | B (80%< substrate protein remaining %≤ 100%) | A (0% ≤ substrate protein remaining % ≤ 80%) | B (80%< substrate protein remaining %≤ 100%) | A (0% ≤ substrate protein remaining % ≤ 80%)
